This is an account of results in patent US20240067702A1, “LACTAM-MODIFIED P[…]” (DONGBAO PURPLE STAR (HANGZHOU) BIOPHARMACEUTICAL CO., LTD., priority 2020, published 2024).

As a reminder, the EC50 is the concentration giving half of the maximal effect. A high value points to weaker potency.

One experiment concerns the target T1, GLP-1R (Homo sapiens, UniProt P43220).
T1 construct: host or cells: HEK293
Put plainly: GLP-1R agonist activity test in vitro (cAMP assay). The class given is cell-based. The following applies: HEK293 host cell. The procedure: (§1) The cell strains were constructed by Shanghai WuXi AppTec.
(§2) The test compound was serially diluted 4-fold with 10 points. The initial concentration was 30 μM, and the dilution was completed with Bravo.
(§3) 1) 100 nL of the compound was transferred to OptiPlate-384 plate using Echo.
(§4) 7) The GLP-1R/GIPR cell concentration was diluted to 2.0*10^5/mL with the experimental buffer.
(§5) 8) […] of the diluted cell suspension was transferred into the OptiPlate-384 plate.
(§6) 9) The diluted cell suspension was incubated at room temperature for 30 minutes.
(§7) 2) 10 μL of cAMP detection reagent was added.
(§8) 3) The OptiPlate-384 plate was covered with TopSeal-A film and incubated at room temperature for 60 minutes.
(§9) TopSeal-A was removed and read in EnVision.
For orientation: cAMP levels reflect the balance of adenylyl cyclase and phosphodiesterase activity.

Another experiment deals with T2, GIPR (Homo sapiens, UniProt P48546).
T2 construct: host or cells: CHO
T2 sequence (P48546 22-466): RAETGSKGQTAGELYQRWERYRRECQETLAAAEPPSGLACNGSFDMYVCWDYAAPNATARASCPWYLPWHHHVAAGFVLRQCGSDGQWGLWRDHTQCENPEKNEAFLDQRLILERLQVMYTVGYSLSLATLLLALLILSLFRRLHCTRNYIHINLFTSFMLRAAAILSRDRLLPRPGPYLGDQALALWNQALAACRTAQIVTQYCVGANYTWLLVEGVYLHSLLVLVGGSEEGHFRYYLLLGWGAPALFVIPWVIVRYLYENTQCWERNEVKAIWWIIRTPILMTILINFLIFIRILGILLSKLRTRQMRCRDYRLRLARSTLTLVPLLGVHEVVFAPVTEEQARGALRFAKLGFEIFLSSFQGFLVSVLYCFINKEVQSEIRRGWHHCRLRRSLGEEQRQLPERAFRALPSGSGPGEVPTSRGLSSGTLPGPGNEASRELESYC
As to the kind of experiment: GIPR agonist activity test in vitro (cAMP assay). Particulars: CHO host cell. The class given is cell-based. The procedure: as §1, §2, §3, §4, §5, §6, §7, §8, §9

Where [1] appears, read: GLP-IR Agonist Activity EC50 (−) 1% HSA, without 1% HSA.
Setting [2] is: GIPR Agonist Activity EC50 (−) 1% HSA, without 1% HSA.

*1 amine or outer side, *2 acyl side, *3 side chain or, on linkers, in order; H or OH if unused. Where a SMILES comes first, the peptide text is derived from it. Bridges are numbered along the chain shown (N, C = ends). Side-chain parts run from the residue outwards. [ ]: non-standard residue; d: D form. The star is where a group is joined. C20 diacid = O=C(O)CCCCCCCCCCCCCCCCCCC(=O)*; C18 diacid = O=C(O)CCCCCCCCCCCCCCCCC(=O)*; γGlu = O=C(O)[C@H](CCC(=O)[*:2])N[*:1]; AEEA = NCCOCCOCC(=O)O; Aib = CC(C)(N)C(=O)O

T1 sequence (P43220 24-463): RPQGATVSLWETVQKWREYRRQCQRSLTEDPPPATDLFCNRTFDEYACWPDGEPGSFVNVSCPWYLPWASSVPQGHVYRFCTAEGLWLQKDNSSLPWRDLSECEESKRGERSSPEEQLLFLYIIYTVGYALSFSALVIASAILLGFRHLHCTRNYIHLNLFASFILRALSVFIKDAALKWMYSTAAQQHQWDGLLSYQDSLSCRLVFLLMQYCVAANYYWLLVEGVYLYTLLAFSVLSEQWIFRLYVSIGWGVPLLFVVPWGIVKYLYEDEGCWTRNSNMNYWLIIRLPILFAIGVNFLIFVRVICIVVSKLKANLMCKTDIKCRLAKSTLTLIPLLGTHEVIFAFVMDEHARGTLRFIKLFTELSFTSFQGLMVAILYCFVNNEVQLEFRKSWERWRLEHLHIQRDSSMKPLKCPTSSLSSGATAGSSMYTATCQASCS

In the case of `CC[C@H](C)[C@H](NC(=O)[C@H](CC(C)C)NC(=O)[C@H](Cc1c[nH]c2ccccc12)NC(=O)[C@@H]1CCC(=O)NCCCC[C@H](NC(=O)[C@H](CCC(N)=O)NC(=O)[C@H](C)NC(=O)[C@H](CCCCNC(=O)COCCOCCNC(=O)COCCOCCNC(=O)CC[C@H](NC(=O)CC[C@H](NC(=O)CCCCCCCCCCCCCCCCC(=O)O)C(=O)O)C(=O)O)NC(=O)[C@H](CCCCN)NC(=O)[C@H](CC(=O)O)NC(=O)[C@H](CC(C)C)NC(=O)C(C)(C)NC(=O)[C@@H](NC(=O)[C@H](CO)NC(=O)[C@H](Cc2ccc(O)cc2)NC(=O)[C@H](CC(=O)O)NC(=O)[C@H](CO)NC(=O)[C@@H](NC(=O)[C@H](Cc2ccccc2)NC(=O)[C@@H](NC(=O)CNC(=O)[C@H](CCC(=O)O)NC(=O)C(C)(C)NC(=O)[C@@H](N)Cc2ccc(O)cc2)[C@@H](C)O)[C@@H](C)O)[C@@H](C)CC)C(=O)N[C@@H](C)C(=O)N[C@@H](Cc2ccccc2)C(=O)N[C@@H](C(C)C)C(=O)N1)C(=O)N[C@@H](C)C(=O)NCC(=O)NCC(=O)N1CCC[C@H]1C(=O)N[C@@H](CO)C(=O)N[C@@H](CO)C(=O)NCC(=O)N[C@@H](C)C(=O)N1CCC[C@H]1C(=O)N1CCC[C@H]1C(=O)N1CCC[C@H]1C(=O)N[C@@H](CO)C(N)=O` [WX-003] (H-Y[Aib]EGTFTSDYSI[Aib]LDKK([AEEA-AEEA-γGlu-γGlu-C18 diacid])AQKAFVEWLIAGGPSSGAPPPS-NH2; lactam 20-24), the EC50 was 0.09 nM on GLP-1R (setting [1]) and 0.3 nM on GIPR (setting [2]).
Take `CC[C@H](C)[C@H](NC(=O)[C@H](CO)NC(=O)[C@H](Cc1ccc(O)cc1)NC(=O)[C@H](CC(=O)O)NC(=O)[C@H](CO)NC(=O)[C@@H](NC(=O)[C@H](Cc1ccccc1)NC(=O)[C@@H](NC(=O)CNC(=O)[C@H](CCC(=O)O)NC(=O)C(C)(C)NC(=O)[C@@H](N)Cc1ccc(O)cc1)[C@@H](C)O)[C@@H](C)O)C(=O)NC(C)(C)C(=O)N[C@@H](CC(C)C)C(=O)N[C@@H](CC(=O)O)C(=O)N[C@@H](CCCCN)C(=O)N[C@@H](CCCCNC(=O)COCCOCCNC(=O)COCCOCCNC(=O)CC[C@H](NC(=O)CCCCCCCCCCCCCCCCCCC(=O)O)C(=O)O)C(=O)N[C@@H](C)C(=O)N[C@@H](CCC(N)=O)C(=O)N[C@H]1CCCCNC(=O)CC[C@@H](C(=O)N[C@@H](Cc2c[nH]c3ccccc23)C(=O)N[C@@H](CC(C)C)C(=O)N[C@@H](CC(C)C)C(=O)N[C@@H](C)C(=O)NCC(=O)NCC(=O)N2CCC[C@H]2C(=O)N[C@@H](CO)C(=O)N[C@@H](CO)C(=O)NCC(=O)N[C@@H](C)C(=O)N2CCC[C@H]2C(=O)N2CCC[C@H]2C(=O)N2CCC[C@H]2C(=O)N[C@@H](CO)C(N)=O)NC(=O)[C@H](C(C)C)NC(=O)[C@H](Cc2ccccc2)NC(=O)[C@H](C)NC1=O` [WX-007] (H-Y[Aib]EGTFTSDYSI[Aib]LDKK([AEEA-AEEA-γGlu-C20 diacid])AQKAFVEWLLAGGPSSGAPPPS-NH2; lactam 20-24): the 50% effective concentration (EC50) at GLP-1R (setting [1]) is 0.14 nM; at GIPR (setting [2]), 0.13 nM.
Consider `CC[C@H](C)[C@H](NC(=O)[C@@H]1CCCCNC(=O)CC[C@H](NC(=O)[C@@H](NC(=O)[C@H](CO)NC(=O)[C@H](Cc2ccc(O)cc2)NC(=O)[C@H](CC(=O)O)NC(=O)[C@H](CO)NC(=O)[C@@H](NC(=O)[C@H](Cc2ccccc2)NC(=O)[C@@H](NC(=O)CNC(=O)[C@H](CCC(=O)O)NC(=O)C(C)(C)NC(=O)[C@@H](N)Cc2ccc(O)cc2)[C@@H](C)O)[C@@H](C)O)[C@@H](C)CC)C(=O)N[C@@H](CC(C)C)C(=O)N[C@@H](CC(=O)O)C(=O)N1)C(=O)N[C@@H](C)C(=O)N[C@@H](CCC(N)=O)C(=O)N[C@@H](CCCCNC(=O)COCCOCCNC(=O)COCCOCCNC(=O)CC[C@H](NC(=O)CCCCCCCCCCCCCCCCCCC(=O)O)C(=O)O)C(=O)N[C@@H](C)C(=O)N[C@@H](Cc1ccccc1)C(=O)N[C@H](C(=O)N[C@@H](CCC(N)=O)C(=O)N[C@@H](Cc1c[nH]c2ccccc12)C(=O)N[C@@H](CC(C)C)C(=O)N[C@H](C(=O)N[C@@H](C)C(=O)NCC(=O)NCC(=O)N1CCC[C@H]1C(=O)N[C@@H](CO)C(=O)N[C@@H](CO)C(=O)NCC(=O)N[C@@H](C)C(=O)N1CCC[C@H]1C(=O)N1CCC[C@H]1C(=O)N1CCC[C@H]1C(=O)N[C@@H](CO)C(N)=O)[C@@H](C)CC)C(C)C` [WX-010] (H-Y[Aib]EGTFTSDYSIELDKIAQK([AEEA-AEEA-γGlu-C20 diacid])AFVQWLIAGGPSSGAPPPS-NH2; lactam 13-16), for which the EC50 on GLP-1R (GLP-IR Agonist Activity EC50 (+) 1% HSA, with 1% HSA) was determined as 34 nM; on GLP-1R (setting [1]), 0.0345 nM; on GIPR (GIPR Agonist Activity EC50 (+) 1% HSA, with 1% HSA) it was 443 nM; on GIPR (setting [2]), 11.9 nM.
For `CC[C@H](C)[C@H](NC(=O)[C@H](CC(C)C)NC(=O)[C@H](Cc1c[nH]c2ccccc12)NC(=O)[C@H](CCCCNC(=O)COCCOCCNC(=O)COCCOCCNC(=O)CC[C@H](NC(=O)CCCCCCCCCCCCCCCCCCC(=O)O)C(=O)O)NC(=O)[C@@H](NC(=O)[C@H](Cc1ccccc1)NC(=O)[C@H](C)NC(=O)[C@@H]1CCCCNC(=O)CC[C@H](NC(=O)[C@H](CCCCN)NC(=O)[C@H](CC(=O)O)NC(=O)[C@H](CC(C)C)NC(=O)C(C)(C)NC(=O)[C@@H](NC(=O)[C@H](CO)NC(=O)[C@H](Cc2ccc(O)cc2)NC(=O)[C@H](CC(=O)O)NC(=O)[C@H](CO)NC(=O)[C@@H](NC(=O)[C@H](Cc2ccccc2)NC(=O)[C@@H](NC(=O)CNC(=O)[C@H](CCC(=O)O)NC(=O)C(C)(C)NC(=O)[C@@H](N)Cc2ccc(O)cc2)[C@@H](C)O)[C@@H](C)O)[C@@H](C)CC)C(=O)N[C@@H](C)C(=O)N[C@@H](CCC(N)=O)C(=O)N1)C(C)C)C(=O)N[C@@H](C)C(=O)NCC(=O)NCC(=O)N1CCC[C@H]1C(=O)N[C@@H](CO)C(=O)N[C@@H](CO)C(=O)NCC(=O)N[C@@H](C)C(=O)N1CCC[C@H]1C(=O)N1CCC[C@H]1C(=O)N1CCC[C@H]1C(=O)N[C@@H](CO)C(N)=O` [WX-008] (H-Y[Aib]EGTFTSDYSI[Aib]LDKEAQKAFVK([AEEA-AEEA-γGlu-C20 diacid])WLIAGGPSSGAPPPS-NH2; lactam 17-20), the EC50 turned out to be 0.08 nM at GLP-1R (setting [1]) and 0.32 nM on GIPR (setting [2]).
